Tests used:
[1] = target: T1, OdinFtsZ1 (Candidatus Odinarchaeum yellowstonii, UniProt A0AAF0ID74); experiment: cryo-EM structure of filament; assay type: binding; details: […] GMPCPP, […] MgCl2, pH […], on ice; nucleotide pocket at subunit interface; map resolution […] A
T1 construct: full length (363 residues by primer name), synthetic gene, 6His-bdSUMO tag cleaved by Ulp protease, E. coli BL21(DE3); residues 34-332 modelled in cryo-EM
T1 sequence (A0AAF0ID74 1-360): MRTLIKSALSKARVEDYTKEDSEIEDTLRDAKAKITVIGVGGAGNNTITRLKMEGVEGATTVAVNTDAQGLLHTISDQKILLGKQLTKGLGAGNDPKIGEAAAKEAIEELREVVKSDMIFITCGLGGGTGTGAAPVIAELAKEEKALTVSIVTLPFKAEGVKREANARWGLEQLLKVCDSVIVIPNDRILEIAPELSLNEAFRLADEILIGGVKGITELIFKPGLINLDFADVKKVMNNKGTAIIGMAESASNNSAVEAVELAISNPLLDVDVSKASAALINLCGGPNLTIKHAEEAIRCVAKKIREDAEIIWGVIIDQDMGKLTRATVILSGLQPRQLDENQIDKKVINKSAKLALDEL

[2] = target: T2, OdinFtsZ2 (Candidatus Odinarchaeum yellowstonii, UniProt A0AAF0D3V8); experiment: […] degree light scattering and TEM / cryo-EM of polymerization; assay type: biochemical; details: […] GTP, […] Mg2+, pH […] KCl, […] °C; nucleotide-dependent assembly
T2 construct: gene ftsZ; full length, synthetic gene, 6His-bdSUMO tag cleaved by Ulp protease, E. coli BL21(DE3); assembles into stacked rings
T2 sequence (A0AAF0D3V8 1-402): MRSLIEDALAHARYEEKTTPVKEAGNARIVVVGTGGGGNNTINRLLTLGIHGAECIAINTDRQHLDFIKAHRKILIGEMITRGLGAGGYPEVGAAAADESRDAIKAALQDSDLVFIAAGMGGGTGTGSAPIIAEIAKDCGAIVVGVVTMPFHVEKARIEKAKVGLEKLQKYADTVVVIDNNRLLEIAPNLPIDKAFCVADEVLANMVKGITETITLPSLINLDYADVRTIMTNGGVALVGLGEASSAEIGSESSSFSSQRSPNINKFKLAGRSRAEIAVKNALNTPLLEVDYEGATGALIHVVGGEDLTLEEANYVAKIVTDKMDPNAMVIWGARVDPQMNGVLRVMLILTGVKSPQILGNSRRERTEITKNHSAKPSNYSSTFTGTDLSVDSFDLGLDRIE

[3] = target: T1, OdinFtsZ1; experiment: light scattering and sedimentation assay of polymerization; assay type: biochemical; details: […] GTP, […] Mg2+, pH […] KCl, […] °C
[4] = target: T2, OdinFtsZ2; experiment: negative-stain TEM of polymerization; assay type: biochemical; details: […] nucleotide, […] MgCl2, pH […] KCl, […] °C
[5] = target: OdinSepF (Candidatus Odinarchaeum yellowstonii LCB_4); experiment: SEC-MALS; Superdex 75 Increase 10/300 GL, HK50 buffer (50 mM HEPES pH 7.4, 50 mM KCl), room temperature, OdinSepF 2 mg/ml, 100 μl

Compound: Nc1nc2c(ncn2[C@@H]2O[C@H](COP(=O)(O)CP(=O)(O)OP(=O)(O)O)[C@@H](O)[C@H]2O)c(=O)[nH]1 [GMPCPP]
- cryo-EM structure of filament [1]: A non-protein density was detected within the nucleotide-binding pocket using Servalcat

Compound: Nc1nc2c(ncn2[C@@H]2O[C@H](COP(=O)(O)OP(=O)(O)OP(=O)(O)O)[C@@H](O)[C@H]2O)c(=O)[nH]1 [GTP]
- 90 degree light scattering and TEM / cryo-EM of polymerization [2]: OdinFtsZ2 formed highly curved, stacked ring-like structures when provided with GTP or GTPγS
- light scattering and sedimentation assay of polymerization [3]: GTP addition significantly enhanced the amount of OdinFtsZ1 in the pellet fraction

Compound: Nc1nc2c(ncn2[C@@H]2O[C@H](COP(=O)(O)OP(=O)(O)OP(O)(O)=S)[C@@H](O)[C@H]2O)c(=O)[nH]1 [GTPγS]
- negative-stain TEM of polymerization [4]: OdinFtsZ2 formed highly curved, stacked ring-like structures when provided with GTP or GTPγS

Compound: OdinSepF (natural protein)
- stoichiometry N [5]: 2

— PMC12583498, “Distinct filament morphology and membrane tethering features of the dual FtsZ paralogs in Odinarchaeota” (The EMBO journal, 2025)
